From US20230088719A1, “USE OF BMP INHIBITORS IN THE TREATMENT OF MOLAR PREGNANCY” (BOGAZICI UNIVERSITESI, priority 2020, published 2023)
Entries after “also recorded” stand apart in the source; their conditions may differ.

Test system: complete mole iPS cells
Test: Trophoblast differentiation of complete mole iPS cells under AP conditions with BMP receptor inhibitor LDN193189
Type: cell-based, human
Method: FIG. 9—Preventing trophoblast differentiation in complete mole iPS cells by inhibition of the BMP signaling pathway. Cells are exposed to vehicle (DMSO) or BMP receptor inhibitor LDN193189 (100 nM) under AP conditions. (A) Changes in colony morphology by LDN193189 treatment. Pictures were obtained with 4× magnification. (B) Heat map showing the expression of trophoblast markers during differentiation of healthy and complete mole iPS cells (n=2 biological replicas) (C-D) Violin plot representation of pluripotency and trophoblast markers (n=2, ****p<0.001, Wilcoxon rank total test) (E) RT-qPCR for trophoblast and stem cell markers. Sidak multiple comparison tests were applied following 2-way ANOVA, *p<0.05, **p<0.01, ***p<0.005, ****p<0.001. Bars; showing±Standard Deviation. (F) Representative immunoblots for CDX2, HLA-G, KRT7 and OCT3/4.
In accordance the purpose of the present invention, the inventors applied it to the nutrition fluid of cells under LDN193189 AP conditions to test whether BMP receptor inhibitors can attenuate trophoblast differentiation or not. […] (FIG. 10A)
Trophoblast cells were formed from the obtained IPSCs under BAP or AP conditions. IPS cells were routinely kept on MEFs with hES medium (10 ng/mL FGF2). For trophoblast differentiation, 2.4×10^4 cells per square centimeter were seeded on matrigel-coated plates with conditioned hES medium through a monolayer of mitomycin-C treated MEF nutrient cells (MEF-CM) containing FGF2 (10 ng/mL). Next day, the medium was changed as MEF-CM containing 4 ng/mL FGF2. Next day, the medium was changed as BMP4 (10 ng/mL) containing unconditioned (BAP) hESC basal medium with MEF nutrient cells (RD Systems), ALK4/5/7 inhibitor, A83-01 (1 μM) (Tocris) and FGF2-signal inhibitor PD173074 […] (Sigma) (22, 27, 28). Control cultures were grown in the presence of FGF2 and in the absence of BAP. The medium was refreshed daily.
Total RNA was extracted using the Direct-zol RNA Isolation Kit (Zymogen) and cDNA was synthesized using the Sensifast cDNA synthesis kit (Bioline) as described by the manufacturer. Sequences of primers used in gene expression were synthesized by Macrogen as listed in table 3. qRT-PCR was performed on Exicycler™ 96 (Bioneer) using SensiFAST™ SYBRQR No-ROX Kit (Bioline). qRT-PCR results were analysed by the Ct method for relative amounts by taking GAPDH or HPRT as internal controls.
Cells were harvested in RIPA lysis buffer (150 mM NaCl, 1% NP40, 0.5% sodium deoxycholate, 0.1% SDS, 50 mM Tris pH 7.4) supplied with protease and phosphatase inhibitors (Roche, Switzerland). TCA-acetone precipitation was performed for the supernatants. Protein samples were applied to the SDS gel. Semi-dry transfer was performed by using Blotting papers (Sigma-Aldrich, USA) and PVDF membrane (Millipore, Ireland). After blocking with 5% non-fat dry milk, membranes were incubated overnight with primary antibodies (1:1000) at +4° C. Next day, the membrane was incubated with secondary antibodies connected with 1:2000 HRP according to the host origin of the primary antibody. Between all steps, membranes were washed 3 times with TBS-T. Immunoblot membranes were visualized with the Syngene documentation system by using ECL HRP Substrate (Advansta, USA).
Total RNA was extracted by using the Direct-zol RNA Isolation Kit (Zymogen) according to the protocol of the manufacturer (n=2 in all cases). Library preparation procedure by using Truseq strand mRNA LT Sample Preparation Kit (Illumina) and RNA sequencing procedure by using Hiseq2500 (Illumina) were performed by Macrogen Inc. (Korea). RNA sequence data were processed and interpreted with the Genialis visual computing platform (www.genialis.com). Briefly, RNA sequence readings were subjected to correction (BBDuk), mapping (STAR) and expression quantitation (featureCounts) procedures, respectively. The readings were mapped to Homo sapiens GRCh38 (Ensembl, version 92, ERCC). […]

[1] = complete mole cells, BMP pathway inhibition with LDN193189 100 nM, AP conditions, FIG. 9F
[2] = complete mole cells, LDN193189 100 nM, AP conditions, FIG. 9C-9D

## c1ccc2c(-c3cnn4cc(-c5ccc(N6CCNCC6)cc5)cnc34)ccnc2c1 [LDN193189]
LDN193189 100 nM, AP conditions, heat map of trophoblast markers FIG. 9B
  trophoblast differentiation of complete mole cells: inhibits trophoblast differentiation of complete mole cells; also recorded: suppression of excessive trophoblast differentiation
Cells treated with LDN193189, FIG. 10D
  hierarchical clustering at whole transcriptome level: clustered with non-differentiated iPS cells
Complete mole cells, BMP pathway inhibition with LDN193189 100 nM, AP conditions, FIG. 9E
  trophoblast gene expression by qRT-PCR: decrease in trophoblast gene expression
[1]
  CDX2, KRT7, HLA-G expression (immunoblot): stopped CDX2, KRT7, HLA-G increase in expression
  OCT3/4 expression (immunoblot): prevented decrease in expression (downregulation) of OCT3/4
Complete mole cells, LDN193189 100 nM, AP conditions (A83-01+PD173074, no BMP4), vs DMSO vehicle, FIG. 9A
  colony morphology (light microscopy): morphological phenotype similar to healthy cells
[2]
  expression of pluripotency markers (RNA sequencing, violin plot): remained highly expressed
  global expression of trophoblast markers (RNA sequencing, violin plot): decreased
